In US5840684A, “Glycopeptide antibiotic derivatives” (Eli Lilly and Company, priority 1995, dated 1998):
Converted amounts (≈) assume the structure as drawn.

Columns and labels:
[1] = system: Staphylococcus aureus S13E; assay type: cell-based
Experimental: (§1) The MIC's were determined using a standard broth micro-dilution assay.

[2] = system: Staphylococcus aureus SA1199B; assay type: cell-based
Experimental: as §1

[3] = system: Entercoccus faecium 180-1; assay: broth micro-dilution MIC; assay type: cell-based
Experimental: as §1

Entercoccus faecium 276 = assay: broth micro-dilution MIC; assay type: cell-based
Experimental: as §1

[4] = system: Staphylococcus aureus 446; assay: broth micro-dilution MIC; assay type: cell-based
Experimental: as §1

[5] = system: Staphylococcus aureus 447; assay: broth micro-dilution MIC; assay type: cell-based
Experimental: as §1

[6] = system: Staphylococcus aureus 489; assay: broth micro-dilution MIC; assay type: cell-based
Experimental: as §1

[7] = system: Staphylococcus aureus 491; assay: broth micro-dilution MIC; assay type: cell-based
Experimental: as §1

[8] = system: Staphylococcus aureus SA1199A; assay: broth micro-dilution MIC; assay type: cell-based
Experimental: as §1

[9] = system: Staphylococcus aureus SA1199; assay: broth micro-dilution MIC; assay type: cell-based
Experimental: as §1

[10] = system: Staphylococcus aureus X400; assay: broth micro-dilution MIC; assay type: cell-based
Experimental: as §1

[11] = system: Staphylococcus aureus X778; assay: broth micro-dilution MIC; assay type: cell-based
Experimental: as §1

[12] = system: Streptococcus pyogenes C203; assay: broth micro-dilution MIC; assay type: cell-based
Experimental: as §1

Entercoccus faecium 180 = assay: broth micro-dilution MIC; assay type: cell-based; conditions: Entercoccus faecium 180
Experimental: (§2) The formula I compounds have in vitro and in vivo activity against Gram-positive pathogenic bacteria. The MIC's were determined using a standard broth micro-dilution assay.

Entercoccus faecium 2041 = assay: broth micro-dilution MIC; assay type: cell-based; conditions: Entercoccus faecium 2041
Experimental: as §2

[13] = system: Enterococcus gallinarum 245; assay: broth micro-dilution MIC; assay type: cell-based; conditions: Enterococcus gallinarum 245
Experimental: as §2

[14] = system: Haemophilus influenzae RD; assay: broth micro-dilution MIC; assay type: cell-based; conditions: Haemophilus influenzae RD
Experimental: as §2

[15] = system: Staphylococcus epidermidis 270; assay: broth micro-dilution MIC; assay type: cell-based
Experimental: as §2

[16] = system: Staphylococcus haemolyticus 105; assay: broth micro-dilution MIC; assay type: cell-based
Experimental: as §2

[17] = system: Staphylococcus haemolyticus 415; assay: broth micro-dilution MIC; assay type: cell-based
Experimental: as §2

[18] = system: Streptococcus pneumoniae P1; assay: broth micro-dilution MIC; assay type: cell-based
Experimental: as §2

[19] = system: vancomycin-resistant enterococci; assay: broth micro-dilution, mean geometric MIC; assay type: cell-based, Enterococcus faecium and Enterococcus faecalis; conditions: enterococci, 24-hour incubation
[20] = system: vancomycin-susceptible enterococci; assay: broth micro-dilution, mean geometric MIC; assay type: cell-based, Enterococcus faecium and Enterococcus faecalis; conditions: enterococci, 24-hour incubation

Structure (SMILES) | MIC [1] | MIC [2] | MIC [3] | MIC (Entercoccus faecium 276) | MIC [4] | MIC [5] | MIC [6] | MIC [7] | MIC [8] | MIC [9] | MIC [10] | MIC [11] | MIC [12] | MIC (Entercoccus faecium 180) [µg/mL] | MIC (Entercoccus faecium 2041) | MIC [13] | MIC [14] [µg/mL] | MIC [15] | MIC [16] | MIC [17] | further results
CNC(CC(C)C)C(=O)NC1C(=O)NC(CC(N)=O)C(=O)NC2C(=O)NC3C(=O)NC(C(=O)NC(C(=O)O)c4cc(O)cc(O)c4-c4cc3ccc4O)C(OC3CC(C)(N)C(O)C(C)O3)c3ccc(c(Cl)c3)Oc3cc2cc(c3OC2OC(CO)C(O)C(O)C2OC2CC(C)(NCc3ccc(-c4ccccc4)cc3)C(O)C(C)O2)Oc2ccc(cc2)C1O (stereo not drawn) [Compound 185] | ≤ .06 µg/mL | ≤ .06 µg/mL | ≤ .06 µg/mL | ≤ .06 µg/mL | ≤ .06 µg/mL | ≤ .06 µg/mL | ≤ .06 µg/mL | ≤ .06 µg/mL | ≤ .06 µg/mL | ≤ .06 µg/mL | ≤ .06 µg/mL | ≤ .06 µg/mL | ≤ .06 µg/mL | 0.125 (≈ 0.0725 µM) | ≤ .06 µg/mL | ≤ .06 µg/mL | 8 (≈ 4.64 µM) | ≤ .06 µg/mL | ≤ .06 µg/mL | ≤ .06 µg/mL | MIC [18]: ≤ .06 µg/mL; mean geometric MIC, Vancomycin Resistant Strains [19]: 4.7 µg/mL; mean geometric MIC, Vancomycin Sensitive Strains [20]: 0.060 µg/mL
CNC(CC(C)C)C(=O)NC1C(=O)NC(CC(N)=O)C(=O)NC2C(=O)NC3C(=O)NC(C(=O)NC(C(=O)O)c4cc(O)cc(O)c4-c4cc3ccc4O)C(OC3CC(C)(N)C(O)C(C)O3)c3ccc(c(Cl)c3)Oc3cc2cc(c3OC2OC(CO)C(O)C(O)C2OC2CC(C)(NCc3cccc(Oc4cccc(C(F)(F)F)c4)c3)C(O)C(C)O2)Oc2ccc(cc2Cl)C1O (stereo not drawn) [Compound 203] | 2 µg/mL (≈ 1.09 µM) | 1 µg/mL (≈ 0.543 µM) | ≤ 0.06 µg/mL | 0.5 µg/mL (≈ 0.271 µM) | 0.5 µg/mL (≈ 0.271 µM) | 1 µg/mL (≈ 0.543 µM) | 0.5 µg/mL (≈ 0.271 µM) | 1 µg/mL (≈ 0.543 µM) | 0.5 µg/mL (≈ 0.271 µM) | 2 µg/mL (≈ 1.09 µM) | 1 µg/mL (≈ 0.543 µM) | 1 µg/mL (≈ 0.543 µM) | ≤ 0.06 µg/mL | 0.125 (≈ 0.0678 µM) | 0.25 µg/mL (≈ 0.136 µM) | 2 µg/mL (≈ 1.09 µM) | 16 (≈ 8.68 µM) | 0.5 µg/mL (≈ 0.271 µM) | 1 µg/mL (≈ 0.543 µM) | 2 µg/mL (≈ 1.09 µM) | MIC [18]: ≤ 0.06 µg/mL; mean geometric MIC, Vancomycin Resistant Strains [19]: 1.0 µg/mL; mean geometric MIC, Vancomycin Sensitive Strains [20]: 0.036 µg/mL
CNC(CC(C)C)C(=O)NC1C(=O)NC(CC(N)=O)C(=O)NC2C(=O)NC3C(=O)NC(C(=O)NC(C(=O)O)c4cc(O)cc(O)c4-c4cc3ccc4O)C(OC3CC(C)(N)C(O)C(C)O3)c3ccc(c(Cl)c3)Oc3cc2cc(c3OC2OC(CO)C(O)C(O)C2OC2CC(C)(NCCCCCCCCOc3ccc(Oc4ccccc4)cc3)C(O)C(C)O2)Oc2ccc(cc2Cl)C1O (stereo not drawn) [Compound 202] | 4 µg/mL (≈ 2.12 µM) | 8 µg/mL (≈ 4.24 µM) | 0.5 µg/mL (≈ 0.265 µM) | 4 µg/mL (≈ 2.12 µM) | 4 µg/mL (≈ 2.12 µM) | 8 µg/mL (≈ 4.24 µM) | 4 µg/mL (≈ 2.12 µM) | 4 µg/mL (≈ 2.12 µM) | 2 µg/mL (≈ 1.06 µM) | 8 µg/mL (≈ 4.24 µM) | 4 µg/mL (≈ 2.12 µM) | 4 µg/mL (≈ 2.12 µM) | ≤ 0.06 µg/mL | 0.5 (≈ 0.265 µM) | 1 µg/mL (≈ 0.529 µM) | 8 µg/mL (≈ 4.24 µM) | 32 (≈ 16.9 µM) | 4 µg/mL (≈ 2.12 µM) | 4 µg/mL (≈ 2.12 µM) | 8 µg/mL (≈ 4.24 µM) | MIC [18]: ≤ 0.06 µg/mL; mean geometric MIC, Vancomycin Resistant Strains [19]: 1.4 µg/mL; mean geometric MIC, Vancomycin Sensitive Strains [20]: 0.76 µg/mL
CNC(CC(C)C)C(=O)NC1C(=O)NC(CC(N)=O)C(=O)NC2C(=O)NC3C(=O)NC(C(=O)NC(C(=O)O)c4cc(O)cc(O)c4-c4cc3ccc4O)C(OC3CC(C)(N)C(O)C(C)O3)c3ccc(c(Cl)c3)Oc3cc2cc(c3OC2OC(CO)C(O)C(O)C2OC2CC(C)(NCCCCc3ccc(OC)cc3)C(O)C(C)O2)Oc2ccc(cc2Cl)C1O (stereo not drawn) [Compound 172] | ≤ 0.06 µg/mL | ≤ 0.06 µg/mL | ≤ 0.06 µg/mL | 0.125 µg/mL (≈ 0.0712 µM) | 4 µg/mL (≈ 2.28 µM) | 0.5 µg/mL (≈ 0.285 µM) | 0.5 µg/mL (≈ 0.285 µM) | 0.5 µg/mL (≈ 0.285 µM) | ≤ 0.06 µg/mL | 1 µg/mL (≈ 0.57 µM) | 0.5 µg/mL (≈ 0.285 µM) | 2 µg/mL (≈ 1.14 µM) | ≤ 0.06 µg/mL | 0.5 (≈ 0.285 µM) | ≤ 0.06 µg/mL | 2 µg/mL (≈ 1.14 µM) | 32 (≈ 18.2 µM) | 0.5 µg/mL (≈ 0.285 µM) | 0.25 µg/mL (≈ 0.142 µM) | 2 µg/mL (≈ 1.14 µM) | MIC [18]: ≤ 0.06 µg/mL; mean geometric MIC, Vancomycin Resistant Strains [19]: 3.4 µg/mL; mean geometric MIC, Vancomycin Sensitive Strains [20]: 0.13 µg/mL
CNC(CC(C)C)C(=O)NC1C(=O)NC(CC(N)=O)C(=O)NC2C(=O)NC3C(=O)NC(C(=O)NC(C(=O)O)c4cc(O)cc(O)c4-c4cc3ccc4O)C(OC3CC(C)(N)C(O)C(C)O3)c3ccc(c(Cl)c3)Oc3cc2cc(c3OC2OC(CO)C(O)C(O)C2OC2CC(C)(NCc3ccc(OCCCCCCc4ccccc4)cc3)C(O)C(C)O2)Oc2ccc(cc2Cl)C1O (stereo not drawn) [Compound 219] | 8 µg/mL (≈ 4.3 µM) | 8 µg/mL (≈ 4.3 µM) | 1 µg/mL (≈ 0.538 µM) | 2 µg/mL (≈ 1.08 µM) | 8 µg/mL (≈ 4.3 µM) | 8 µg/mL (≈ 4.3 µM) | 8 µg/mL (≈ 4.3 µM) | 4 µg/mL (≈ 2.15 µM) | 1 µg/mL (≈ 0.538 µM) | 4 µg/mL (≈ 2.15 µM) | 8 µg/mL (≈ 4.3 µM) | 8 µg/mL (≈ 4.3 µM) | ≤ 0.06 µg/mL | 1 (≈ 0.538 µM) | 2 µg/mL (≈ 1.08 µM) | 2 µg/mL (≈ 1.08 µM) | 32 (≈ 17.2 µM) | 4 µg/mL (≈ 2.15 µM) | 2 µg/mL (≈ 1.08 µM) | 2 µg/mL (≈ 1.08 µM) | MIC [18]: ≤ 0.06 µg/mL; mean geometric MIC, Vancomycin Resistant Strains [19]: 0.71 µg/mL; mean geometric MIC, Vancomycin Sensitive Strains [20]: 0.044 µg/mL
CNC(CC(C)C)C(=O)NC1C(=O)NC(CC(N)=O)C(=O)NC2C(=O)NC3C(=O)NC(C(=O)NC(C(=O)O)c4cc(O)cc(O)c4-c4cc3ccc4O)C(OC3CC(C)(N)C(O)C(C)O3)c3ccc(c(Cl)c3)Oc3cc2cc(c3OC2OC(CO)C(O)C(O)C2OC2CC(C)(NCCCCCCCCCC#Cc3ccccc3)C(O)C(C)O2)Oc2ccc(cc2Cl)C1O (stereo not drawn) [Compound 236] | 4 µg/mL (≈ 2.2 µM) | 4 µg/mL (≈ 2.2 µM) | 1 µg/mL (≈ 0.55 µM) | 2 µg/mL (≈ 1.1 µM) | 1 µg/mL (≈ 0.55 µM) | 4 µg/mL (≈ 2.2 µM) | 4 µg/mL (≈ 2.2 µM) | 4 µg/mL (≈ 2.2 µM) | 2 µg/mL (≈ 1.1 µM) | 4 µg/mL (≈ 2.2 µM) | 2 µg/mL (≈ 1.1 µM) | 2 µg/mL (≈ 1.1 µM) | ≤ 0.06 µg/mL | 1 (≈ 0.55 µM) | 1 µg/mL (≈ 0.55 µM) | 4 µg/mL (≈ 2.2 µM) | 32 (≈ 17.6 µM) | 2 µg/mL (≈ 1.1 µM) | 4 µg/mL (≈ 2.2 µM) | 4 µg/mL (≈ 2.2 µM) | MIC [18]: ≤ 0.06 µg/mL; mean geometric MIC, Vancomycin Resistant Strains [19]: 1.4 µg/mL; mean geometric MIC, Vancomycin Sensitive Strains [20]: 0.5 µg/mL
